Earlier results as cited in patent publication US20020082306A1, “Aqueous formulation of beta carotene” (Sanochemia Pharmazeutika Aktiengesellschaft, priority 1998, published 2002).

Legend:
[1] = in the presence of light and heat

- solubility in cyclohexane (cyclohexane): hardly soluble
- solubility in ethanol (ethanol): hardly soluble
- solubility in ether (ether): hardly soluble
- solubility in water (water as well as the usually employed aqueous formulations): practically insoluble
- decomposition of dissolved beta-carotene by oxygen from ambient air [1]: easily decomposed
Structure (SMILES): CC1=C(/C=C/C(C)=C/C=C/C(C)=C/C=C/C=C(C)/C=C/C=C(C)/C=C/C2=C(C)CCCC2(C)C)C(C)(C)CCC1 [Beta-carotene, beta-carotene]
